Experimental data taken from publication PMC9732521, “Molecular mechanism of GylR-mediated regulation of glycerol metabolism in Streptomyces clavuligerus NRRL 3585” (Frontiers in Microbiology, 2022).

Experiments:
GylR = biological target: T1, GylR (Streptomyces clavuligerus, UniProt E2PWC0); test: EMSA, dissociation of GylR from DNA probe BS2; format: binding; conditions: effector (inducer), 50 mM HEPES pH 7.5, 5 mM MgCl2, 25 °C
T1 construct: gene SCLAV_0876; coding region of gylR in pET-30a (NdeI/XhoI), C-terminal His6 tag, E. coli Rosetta (DE3), Ni-NTA; dimer by SEC

[1] = biological target: GylR (IclR family transcriptional regulator) of Streptomyces clavuligerus NRRL 3585, C-terminal His6-tagged (Streptomyces clavuligerus NRRL 3585); test: SEC; TSKgel G3000 SWxl column (7.8 x 300 mm) on HPLC, 0.1 M Na2SO4 (pH 6.7), 0.5 ml/min; bovine serum albumin, ovalbumin and AlpJ as molecular weight standards

T1 sequence (E2PWC0 entry or part of it): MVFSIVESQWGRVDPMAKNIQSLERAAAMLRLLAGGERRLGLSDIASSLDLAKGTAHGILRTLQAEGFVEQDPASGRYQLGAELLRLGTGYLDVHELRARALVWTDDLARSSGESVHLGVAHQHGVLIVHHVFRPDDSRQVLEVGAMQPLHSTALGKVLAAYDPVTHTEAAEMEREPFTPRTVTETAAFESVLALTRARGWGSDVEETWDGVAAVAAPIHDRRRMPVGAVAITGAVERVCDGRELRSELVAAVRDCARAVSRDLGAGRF

Compound	EMSA, dissociation of GylR from DNA probe BS2 (GylR)	stoichiometry N [1]
O=C(CO)COP(=O)(O)O [DHAP, dihydroxyacetone phosphate]	both G3P and DHAP were capable of inducing the dissociation of GylR from BS2	–
O=P(O)(O)OC[C@H](O)CO [G3P, glycerol-3-phosphate]	both G3P and DHAP were capable of inducing the dissociation of GylR from BS2	–
GylR (IclR family transcriptional regulator) of Streptomyces clavuligerus NRRL 3585, C-terminal His6-tagged (natural protein)	–	2
